Laboratory results reported in US20090124587A1, “METHODS FOR TREATING CANCER USING 17alpha-HYDROXYLASE/C17,20-LYASE INHIBITORS” (priority 2007, published 2009).
Where two headings read alike, the source gives them in different places.

Experiment: Food effect PK study, two single oral 1000 mg doses of abiraterone acetate, fed (high fat) vs fasted
Type: in vivo, human
Conditions: for concentration at 1.017 h: read-out: Abiraterone Concentration in plasma; for clearance: read-out: Cl F obs (converted); for Vd/F: read-out: Vz F obs; for concentration at 1.033 hr: sample time 1.033 hr; for concentration at 6 hr: sample time 6.000 hr; for concentration at 8 hr: sample time 8.000 hr; for concentration at 1 hr: sample time 1.000 hr; for concentration at 7.983 hr: sample time 7.983 hr
Description: To measure the amount of abiraterone and abiraterone acetate in the samples, these compounds were extracted from 100 uL human plasma using solid phase extraction (SPE) with cation mixed-mode polymer cartridges. Extracts were evaporated to dryness before reconstitution and analysis. Chromatography was carried out using a Luna™ C5 column (5 μm, 50 mm×2.1 mm id) with a gradient mobile phase consisting of 10 mM ammonium acetate and 2% propan-2-ol in acetonitrile. The flow rate was 0.2 mL/min and the run time 10.5 minutes. Abiraterone and abiraterone acetate were ionized using the electrospray interface in positive ion mode. Detection of analytes was via tandem mass spectrometry (MS/MS) in the multiple reaction monitoring (MRM) mode.
PK modeling was conducted using a non-compartmental model, extra vascular input for plasma with WinNonLin Software®. Pharmacokinetic parameters estimated in the model include:
Based on the above results, the PK parameters for a single dose of 1000 mg/day of abiraterone acetate were further studied in the 3 subjects who were administered the 1000 mg/day dose and in 3 additional subjects. Two single oral doses (1000 mg) of abiraterone acetate were administered separately, one concomitantly with food of high fat content and one in fasting state. The first single dose was administered on day −9 with PK blood samples being taken at 1, 2, 4, 6, 8, 24, 48 and 72 hours post dose. The second single dose was administered on day −3 with PK blood samples being taken at 1, 2, 4, 6, 8, 24 and 48 hours post dose for analysis.

[1] = human, plasma, oral, 1000 mg, Patient 13, 1000 mg, Fasted
[2] = human, plasma, oral, 1000 mg, Patient 13, 1000 mg, Fed
[3] = human, plasma, oral, 1000 mg, Patient 13, Fasted
[4] = human, plasma, oral, 1000 mg, Patient 13, Fed
[5] = human, plasma, oral, 1000 mg, Patient 14, 1000 mg, Fasted
[6] = human, plasma, oral, 1000 mg, Patient 14, 1000 mg, Fed
[7] = human, plasma, oral, 1000 mg, Patient 14, Fasted
[8] = human, plasma, oral, 1000 mg, Patient 14, Fed
[9] = human, plasma, oral, 1000 mg, Patient 15, 1000 mg, Fasted
[10] = human, plasma, oral, 1000 mg, Patient 15, 1000 mg, Fed
[11] = human, plasma, oral, 1000 mg, Patient 15, Fasted
[12] = human, plasma, oral, 1000 mg, Patient 15, Fed

C[C@]12CC[C@H](O)CC1=CC[C@@H]1[C@@H]2CC[C@]2(C)C(c3cccnc3)=CC[C@@H]12 [Abiraterone]
Abiraterone plasma levels with food in comparison with fasting (1000 mg, concomitantly with food vs fasting): higher
HL (Patient 13, 1000 mg, Fasted): 10.2 h
HL (Patient 13, 1000 mg, Fed): 10.7 h
concentration at 1.017 h (Patient 13, Fasted, 1000 mg, pre-dose (day −3)): 0.0 nM
concentration at 1.017 h (Patient 13, Fed, 1000 mg, pre-dose (day −9)): 0.0 nM
Abiraterone Concentration in plasma (Patient 13, Fed, 1000 mg, sample time 72.000 hr): BLLOQ^1
HL (Patient 14, 1000 mg, Fasted): 6.6 h
HL (Patient 14, 1000 mg, Fed): 8.8 h
concentration at 1.017 h (Patient 14, Fasted, 1000 mg, pre-dose (day −9)): 0.0 nM
Abiraterone Concentration in plasma (Patient 14, Fasted, 1000 mg, sample time 48.217 hr): BLLOQ
concentration at 1.017 h (Patient 14, Fed, 1000 mg, pre-dose (day −3)): 0.0 nM
HL (Patient 15, 1000 mg, Fasted): 6.6 h
HL (Patient 15, 1000 mg, Fed): 8.0 h
Abiraterone Concentration in plasma (Patient 15, Fasted, 1000 mg, pre-dose (day −3)): BLLOQ
concentration at 1.017 h (Patient 15, Fed, 1000 mg, pre-dose (day −9)): 0.0 nM
Abiraterone Concentration in plasma (Patient 15, Fed, 1000 mg, sample time 2.000 hr): BLLOQ
Abiraterone Concentration in plasma (Patient 15, Fed, 1000 mg, sample time 70.100 hr): BLLOQ
HL (Patient 19, 1000 mg, Fasted): 8.0 h
HL (Patient 19, 1000 mg, Fed): 10.0 h
concentration at 1.017 h (Patient 19, Fasted, 1000 mg, pre-dose (day −9)): 0.0 nM
Abiraterone Concentration in plasma (Patient 19, Fasted, 1000 mg, sample time 71.950 hr): BLLOQ
concentration at 1.017 h (Patient 19, Fed, 1000 mg, pre-dose (day −3)): 0.0 nM
HL (Patient 20, 1000 mg, Fasted): 15.3 h
HL (Patient 20, 1000 mg, Fed): 18.3 h
concentration at 1.017 h (Patient 20, Fasted, 1000 mg, pre-dose (day −3)): 5.1 nM
Abiraterone Concentration in plasma (Patient 20, Fed, 1000 mg, pre-dose (day −9)): BLLOQ
HL (Patient 21, 1000 mg, Fasted): 12.6 h
HL (Patient 21, 1000 mg, Fed): 9.7 h
concentration at 1.017 h (Patient 21, Fasted, 1000 mg, pre-dose (day −9)): 0 nM
Abiraterone Concentration in plasma (Patient 21, Fed, 1000 mg, pre-dose (day −3)): BLLOQ
difference in mean drug levels between the dosing regimes (fed vs fasted) (extended cohort of six patients): Up to a two fold difference
clearance [1]: 12600 mL/min
Vd/F [1]: 11100 L
clearance [2]: 4240 mL/min
Vd/F [2]: 3920 L
AUC(0-inf) [3]: 3.78 µM·h
AUC(0-t) [3]: 3.7 µM·h
Cmax [3]: 548 nM
Tmax [3]: 1.03 h
concentration at 1.033 hr [3]: 548 nM
concentration at 2.017 hr (human, plasma, oral, 1000 mg, Patient 13, Fasted, sample time 2.017 hr): 500 nM
concentration at 4 hr (human, plasma, oral, 1000 mg, Patient 13, Fasted, sample time 4.000 hr): 304 nM
concentration at 6 hr [3]: 104 nM
concentration at 8 hr [3]: 89.4 nM
concentration at 24.667 hr (human, plasma, oral, 1000 mg, Patient 13, Fasted, sample time 24.667 hr): 34.1 nM
concentration at 48.117 hr (human, plasma, oral, 1000 mg, Patient 13, Fasted, sample time 48.117 hr): 5.8 nM
AUC(0-inf) [4]: 11.2 µM·h
AUC(0-t) [4]: 10.8 µM·h
Cmax [4]: 1180 nM
Tmax [4]: 4 h
concentration at 1 hr [4]: 130 nM
concentration at 2 h (human, plasma, oral, 1000 mg, Patient 13, Fed, sample time 2.000 hr): 675 nM
concentration at 4 h (human, plasma, oral, 1000 mg, Patient 13, Fed, sample time 4.000 hr): 1180 nM
concentration at 7.983 hr [4]: 392 nM
concentration at 23.983 hr (human, plasma, oral, 1000 mg, Patient 13, Fed, sample time 23.983 hr): 93.7 nM
concentration at 48.5 hr (human, plasma, oral, 1000 mg, Patient 13, Fed, sample time 48.500 hr): 26.8 nM
clearance [5]: 32600 mL/min
Vd/F [5]: 18500 L
clearance [6]: 4050 mL/min
Vd/F [6]: 3070 L
AUC(0-inf) [7]: 1.46 µM·h
AUC(0-t) [7]: 1.35 µM·h
Cmax [7]: 205 nM
Tmax [7]: 4.07 h
concentration at 1 hr [7]: 76.3 nM
concentration at 2 hr (human, plasma, oral, 1000 mg, Patient 14, Fasted, sample time 2.000 hr): 82.5 nM
concentration at 4.067 hr (human, plasma, oral, 1000 mg, Patient 14, Fasted, sample time 4.067 hr): 205 nM
concentration at 6.05 hr (human, plasma, oral, 1000 mg, Patient 14, Fasted, sample time 6.050 hr): 99.8 nM
concentration at 8.017 hr (human, plasma, oral, 1000 mg, Patient 14, Fasted, sample time 8.017 hr): 48.6 nM
concentration at 24.017 hr (human, plasma, oral, 1000 mg, Patient 14, Fasted, sample time 24.017 hr): 12.1 nM
concentration at 71.333 hr (human, plasma, oral, 1000 mg, Patient 14, Fasted, sample time 71.333 hr): 0 nM
AUC(0-inf) [8]: 11.8 µM·h
AUC(0-t) [8]: 11.6 µM·h
Cmax [8]: 2210 nM
Tmax [8]: 1.03 h
concentration at 1.033 hr [8]: 2210 nM
concentration at 2.033 hr (human, plasma, oral, 1000 mg, Patient 14, Fed, sample time 2.033 hr): 1770 nM
concentration at 4 hr (human, plasma, oral, 1000 mg, Patient 14, Fed, sample time 4.000 hr): 464 nM
concentration at 6 hr [8]: 516 nM
concentration at 7.983 hr [8]: 335 nM
concentration at 24.083 hr (human, plasma, oral, 1000 mg, Patient 14, Fed, sample time 24.083 hr): 79.7 nM
concentration at 47.7 hr (human, plasma, oral, 1000 mg, Patient 14, Fed, sample time 47.700 hr): 14.2 nM
clearance [9]: 18400 mL/min
Vd/F [9]: 10500 L
clearance [10]: 4610 mL/min
Vd/F [10]: 3190 L
AUC(0-inf) [11]: 2.59 µM·h
AUC(0-t) [11]: 2.37 µM·h
Cmax [11]: 420 nM
Tmax [11]: 2.98 h
concentration at 1 hr [11]: 8.7 nM
concentration at 2.983 hr (human, plasma, oral, 1000 mg, Patient 15, Fasted, sample time 2.983 hr): 420 nM
concentration at 3.967 hr (human, plasma, oral, 1000 mg, Patient 15, Fasted, sample time 3.967 hr): 242 nM
concentration at 5.983 hr (human, plasma, oral, 1000 mg, Patient 15, Fasted, sample time 5.983 hr): 131 nM
concentration at 8 hr [11]: 111 nM
concentration at 22.983 hr (human, plasma, oral, 1000 mg, Patient 15, Fasted, sample time 22.983 hr): 22.4 nM
AUC(0-inf) [12]: 10.3 µM·h
AUC(0-t) [12]: 10.1 µM·h
Cmax [12]: 1120 nM
Tmax [12]: 6.08 h
concentration at 1 hr [12]: 0 nM
